Values of other authors as cited in PMC7029871, “Development and validation of a sensitive LC-MS/MS method for the quantitation of IMB-YH-4py5-2H, an antituberculosis candidate, and its application to the pharmacokinetic study” (PLoS ONE, 2020).
Like-named read-outs stand apart in the source and are kept apart here.

Test system: Mycobacterium tuberculosis strains
Details: cited from earlier work

Row | SMILES | MICs (drug-sensitive and drug-resistant M. tuberculosis strains) | MICs (sensitive and resistant M. tuberculosis strains, method and reference not given)
1 | COC(=O)/C=C/C(=O)c1ccc(OC)cc1 [YH-8, (E)-Methyl-4-aryl-4-oxabut-2-enoate, reference compound] | 0.25 to 1 µg/mL | –
2 | CN(C)C(=O)/C=C/C(=O)c1ccc(-c2ccncc2)cc1.Cl [IMB-YH-4py5-2H, (E)-N,N-dimethyl-4-oxo-4-(4-(pyridin-4-yl)phenyl)but-2-enamide hydrochloride] | – | 0.25 to 0.5 µg/mL
